One block for each substance: values may come before it. Ends that are not written are not given here. * marks the point of attachment. Myristoyl = CCCCCCCCCCCCCC(=O)*
Tests used:
[1] = test system: JNK1/2 and p38α/β; assay: Immunofluorescence of stimulated nuclear translocation of JNK1/2 and p38α/β in HeLa cells; assay type: cell-based; details: for stimuli-dependent nuclear translocation of JNK1/2 and p38α/β: HeLa cells, peptide 10 μM applied prior to stimulation, Anisomycin 0.5 μg/ml
Description: FIGS. 2A-2C illustrate that Imp3, 7 and 9 are required for JNK and p38 translocation and induced transcription. (A) Si RNAs of Imp3, 7, 9, but not Imp5, inhibit the stimulated JNK and p38 nuclear translocation. HeLa cells were grown on cover slides to 30% confluence. si RNAs of the indicated Imps and si Control supplied by the company (si Scr, negative control) were then transfected to the cells using Dharmafect according to the manufacturer's instructions. Forty eight hrs after transfection, the cells were serum starved, then either stimulated with Anisomycin (0.5 μg/ml, 15 min), or left untreated (NT) as indicated. The cells were then fixed, stained using the indicated (left) anti MAPK Abs and visualized using a fluorescent microscope. (B) Quantification of JNKs/p38s nuclear localization prior and upon stimulation. Data shown represents mean±S.E. The significance of Imp3 vs. Imp7/Imp9 (*) was p<0.0003. The significance of stimulated Imp3/7/9 vs Scr was p<0.00001 (C) Si RNA of Imp3, 7, 9 inhibit the activation of downstream transcription factor targets of JNKs/p38s. HeLa cells were transfected with si RNAs of the indicated Imps and si control supplied by the manufacturer (si Scr, negative control) using Dharmafect according to the manufacturer instructions. Forty eight hrs after transfection, the cells were serum starved, and then stimulated with Anisomycin (Anis 0.5 μg/ml) for the indicated times or left untreated (NT). Cell extracts were subjected to a Western blot analysis with anti pJUN, pMEF2A, pATF2, indicated Imps, and tubulin Abs.
HeLa cells were grown on slides to 70% confluence, serum starved (0.1% FBS, 16 hrs), and then either incubated with the inhibitory peptide (Peptide, 10 μM) or scrambled peptide (Scr peptide, 10 μM), cells were then treat with Anisomycin (Anis, 0.5 μg/ml) or left untreated (NT). Cells were fixed, and stained with anti JNK1, JNK2, p38α or p38β Abs as indicated, and DAPI to detect nuclei. The slides were visualized using a fluorescent microscope. […] HeLa cells were grown to 70% confluence, serum starved (0.1% FBS, 16 hrs), and then either incubated with the inhibitory peptide (Peptide, 10 μM), scrambled peptide (Scr peptide, 10 μM), or DMSO, followed by treatment with Anisomycin (Anis, 0.5 μg/ml) or mock control (NT). Cell extracts were then subjected to Co-IP with anti JNK1, JNK2, p38α, p38β Abs. The interacting Imp7 was detected by Western blot with the indicated anti Imps Abs. Amount of IPed MAPKs was detected by the anti JNK1, JNK2, p38α and p38β Abs as indicated. […]
FIGS. 19A-19C illustrate that myristoylated peptides inhibit the stimulation dependent nuclear translocation of p38. […] The nuclei were detected using DAPI and slides were visualized using a spinning disc confocal microscope (Zeiss, ×100 magnification). […]

[2] = biological target: T1, interaction of JNK1/2 and p38α/β with Imp7 (Homo sapiens, UniProt O95373); assay: Co-immunoprecipitation of MAPKs with importins from extracts of treated HeLa cells; assay type: cell-based; details: for interaction of p38 with Imp7 (CoIP): HeLa cells pre-incubated with modified peptide 2 hours, anisomycin 0.5 μg/ml 15 min; for Imp7/9 interactions of the MAPKs examined (JNK1/2 and p38α/β), Co-IP: HeLa cells, peptide 10 μM applied prior to stimulation, Anisomycin 0.5 μg/ml
T1 construct: endogenous in cells; host or cells: HeLa
Description: HeLa cells were grown on slides to 70% confluence, serum starved (0.1% FBS, 16 hrs), and then either incubated with the inhibitory peptide (Peptide, 10 μM) or scrambled peptide (Scr peptide, 10 μM), cells were then treat with Anisomycin (Anis, 0.5 μg/ml) or left untreated (NT). Cells were fixed, and stained with anti JNK1, JNK2, p38α or p38β Abs as indicated, and DAPI to detect nuclei. The slides were visualized using a fluorescent microscope. […] HeLa cells were grown to 70% confluence, serum starved (0.1% FBS, 16 hrs), and then either incubated with the inhibitory peptide (Peptide, 10 μM), scrambled peptide (Scr peptide, 10 μM), or DMSO, followed by treatment with Anisomycin (Anis, 0.5 μg/ml) or mock control (NT). Cell extracts were then subjected to Co-IP with anti JNK1, JNK2, p38α, p38β Abs. The interacting Imp7 was detected by Western blot with the indicated anti Imps Abs. Amount of IPed MAPKs was detected by the anti JNK1, JNK2, p38α and p38β Abs as indicated.
(A) Myristiolated peptide was modified (replacement of 3 residues to alanin) Myr-KPERYQNLSPVGSGA—SEQ ID NO: 9; Myr-KPERYQNLSPVAAAA—SEQ ID NO: 10. (B) Hela cells were pre-incubated with modified peptide (2 hours) then either stimulated with anisomycin (Anis, 0.5 μg/ml, 15 min) or left untreated. Cell extracts were then subjected to CoIP with anti p38a . The interacting Imp7 or IPed p38 were detected by Western blot with indicated Abs.
Co-Immunoprecipitation: HeLa cells were grown to subconfluency, serum-starved (0.1% FBS for 16 h) and then stimulated or treated with other drugs. Cell extracts were produced as previously described and incubated for 2 hours (4° C., with rotation) with A/G-agarose beads (Santa Cruz Biotechnology) pre-linked with specific Abs (1 hrs, 23° C.). The bound A/G beads were washed three times with ice-cold washing buffer. The IPed beads were then resuspended with 1.5× sample buffer and boiled; the resolved proteins were analyzed by Western blotting with the indicated Abs.
CoIP: Cell extracts were produced and incubated for 2 hr (4° C., with rotation) with A/G-agarose beads pre-linked with specific Abs (1 hr, 23° C.). The bound A/G beads were washed, resuspended (1.5× sample buffer), boiled and subjected to Western blotting.

[3] = test system: MAPKs; assay: Western blot of stimulation-dependent activation of MAPKs in HeLa cells; assay type: cell-based; details: HeLa cells pre-incubated with peptide, Anisomycin 0.5 μg/ml or TPA 250 nM
Description: HeLa cells were grown to 70% confluence, serum starved and pre-incubated with either new peptide (NP), peptide or scrambled peptide and then either stimulated with Anisomycin (Anis 0.5 μg/ml), TPA (250 nM) or left untreated (NT). Cell extracts were produced and subjected to Western blot analysis with the indicated Abs.

[4] = test system: DSS-induced Colitis; assay: DSS-induced colitis model; assay type: in vivo; details: male C57BL mice, 15 mg/Kilo I.V every 48 hours, DSS 1.25% in drinking water, 7 days, compared with control peptide
Description: FIGS. 17A-17C illustrate the use of inhibitory peptide as a potential therapeutic agent in colitis model. 21 male C57BL mice treated (I.V every 48 hours) with either peptide (15 mg/Kilo), scramble peptide (15 mg/Kilo) or DMSO (2%). Colitis was induced using DSS (1.25% in drinking water) and mice were sacrificed 7 days post induction. (A-C). Colitis was evaluated using endoscopic imaging and scored for the number of lesions in the colon and weight of mice.
In vivo experiment: 21 male C57BL mice were weighed then injected (I.V) with either peptide (15 mg/Kilo), scramble peptide (15 mg/Kilo) or DMSO (2%). Twenty-four hours post injection drinking water of the mice was replaced with water containing DSS (1.25%), peptide, scramble peptide or DMSO were injected every forty-eight hours. Mice were sacrificed seven days post replacement of drinking water, and colitis was assessed using endoscopy and weight of mice.

[5] = listed as 14 amino acid myristoylated peptide

T1 sequence (O95373 whole entry): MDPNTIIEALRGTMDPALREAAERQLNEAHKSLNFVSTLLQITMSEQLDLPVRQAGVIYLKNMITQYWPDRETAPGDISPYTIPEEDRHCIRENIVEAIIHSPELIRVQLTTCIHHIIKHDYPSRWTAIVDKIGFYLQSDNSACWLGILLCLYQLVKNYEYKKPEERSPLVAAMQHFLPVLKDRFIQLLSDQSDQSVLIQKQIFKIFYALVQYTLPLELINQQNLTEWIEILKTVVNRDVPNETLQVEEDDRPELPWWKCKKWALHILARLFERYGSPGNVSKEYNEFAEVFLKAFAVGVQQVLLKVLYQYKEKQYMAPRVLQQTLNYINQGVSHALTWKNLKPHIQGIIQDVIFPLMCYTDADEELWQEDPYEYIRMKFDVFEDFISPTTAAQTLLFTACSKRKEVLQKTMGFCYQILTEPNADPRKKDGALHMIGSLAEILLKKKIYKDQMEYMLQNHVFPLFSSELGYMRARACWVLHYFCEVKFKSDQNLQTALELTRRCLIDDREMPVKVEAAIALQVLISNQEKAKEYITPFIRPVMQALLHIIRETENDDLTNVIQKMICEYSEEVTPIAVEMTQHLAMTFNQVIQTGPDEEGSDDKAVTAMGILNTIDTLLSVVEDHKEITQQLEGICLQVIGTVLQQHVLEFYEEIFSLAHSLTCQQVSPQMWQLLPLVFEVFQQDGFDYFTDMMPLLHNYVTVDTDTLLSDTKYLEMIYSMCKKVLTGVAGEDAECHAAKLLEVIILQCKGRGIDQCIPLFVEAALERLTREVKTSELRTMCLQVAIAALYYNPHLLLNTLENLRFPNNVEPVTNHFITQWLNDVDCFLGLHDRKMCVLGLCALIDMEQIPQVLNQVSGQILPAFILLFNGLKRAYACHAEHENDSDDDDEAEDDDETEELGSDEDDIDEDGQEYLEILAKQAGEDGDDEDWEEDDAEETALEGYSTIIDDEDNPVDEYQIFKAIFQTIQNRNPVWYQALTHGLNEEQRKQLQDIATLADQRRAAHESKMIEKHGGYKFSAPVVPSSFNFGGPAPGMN

- interaction of p38 with Imp7 (CoIP) [2]: blocks the interaction
- interaction of p38 with Imp7 (CoIP) ([2]; listed as newly designed peptide): inhibited
Substance: Myr-KPERYQNLSPVAAAA (Myristoyl-KPERYQNLSPVAAAA) [myristoylated peptide modified by replacement of 3 residues to alanin]
- stimulation-induced nuclear translocation of JNK and p38 MAPKs ([1]; HeLa cells pre-incubated with peptide, Anisomycin 0.5 μg/ml 15 min, spinning disc confocal microscope): prevented
- stimulation-dependent activation (kinase activity) of MAPKs [3]: without affecting

Substance: Myr-KPERYQNLSPVGSGA (Myristoyl-KPERYQNLSPVGSGA)
- DSS-induced Colitis (average weight loss and number of lesions in the colon) [4]: reduced DSS-induced Colitis

- Imp7/9 interactions of the MAPKs examined (JNK1/2 and p38α/β), Co-IP [2]: prevented
- Imp7/9 interactions of the MAPKs examined (JNK1/2 and p38α/β), Co-IP [2, 5]: prevented
- Imp7/9 interactions of the MAPKs examined (JNK1/2 and p38α/β), Co-IP ([2]; listed as inhibitory peptide): inhibits the interaction
Substance: Myr-PERYQNLSPVGSGA (Myristoyl-PERYQNLSPVGSGA) [14 amino acid myristoylated peptide based on residues 21-34 of p38α]
- stimuli-dependent nuclear translocation of JNK1/2 and p38α/β [1]: prevented the nuclear translocation
- stimuli-dependent nuclear translocation of JNK1/2 and p38α/β [1, 5]: prevented the nuclear translocation
- stimuli-dependent nuclear translocation of JNK1/2 and p38α/β ([1]; listed as inhibitory peptide): inhibits the stimuli-dependent nuclear translocation
